Laboratory results: US20260306642A1, “STAT DEGRADERS AND USES THEREOF” (Recludix Pharma, Inc., priority 2023, published 2026)
Where two headings read alike, the source gives them in different places.

What was measured:
[1] = molecular target: T1, STAT3 (Homo sapiens, UniProt P40763); assay: STAT3 Fluorescence Polarization (FP) Assay; format: binding
T1 construct: Recombinant STAT3 protein (STAT3(G127-I722))
Description: An FP assay was developed to determine IC50 values for test substances.
Recombinant STAT3 protein (STAT3(G127-I722)) at 25 nM was combined with a fluorescently labeled, phosphotyrosine peptide probe (5-FAM-GpYLPQTV-NH2) at 2 nM in FP buffer (10 mM HEPES pH 7.4, 50 mM NaCl, 1 mM EDTA, 0.05% Tween 20, 2 mM DTT). 50 μL of STAT3-probe mixture was added to serial diluted compounds in black, 96-well plates (Greiner BioOne 655076) to a final concentration of 1% DMSO. Reaction components were mixed, and FP was measured after 45-minute incubation at room temperature using a Tecan Spark multimode plate reader. FP signal (mP) was plotted against the log concentration of the test substances and IC50 values were calculated by nonlinear regression analysis using GraphPad Prism software. For STAT3 FP assay, A=≤100 nM; B=>100-1000 nM; C=>1-10 μM; and D=>10 μM.

[2] = molecular target: T2, STAT6 (Homo sapiens, UniProt P42226); assay: STAT6 Fluorescence Polarization (FP) Assay; format: binding
T2 construct: Recombinant STAT6 protein (STAT6(W123-T658))
T2 sequence (P42226 123-658): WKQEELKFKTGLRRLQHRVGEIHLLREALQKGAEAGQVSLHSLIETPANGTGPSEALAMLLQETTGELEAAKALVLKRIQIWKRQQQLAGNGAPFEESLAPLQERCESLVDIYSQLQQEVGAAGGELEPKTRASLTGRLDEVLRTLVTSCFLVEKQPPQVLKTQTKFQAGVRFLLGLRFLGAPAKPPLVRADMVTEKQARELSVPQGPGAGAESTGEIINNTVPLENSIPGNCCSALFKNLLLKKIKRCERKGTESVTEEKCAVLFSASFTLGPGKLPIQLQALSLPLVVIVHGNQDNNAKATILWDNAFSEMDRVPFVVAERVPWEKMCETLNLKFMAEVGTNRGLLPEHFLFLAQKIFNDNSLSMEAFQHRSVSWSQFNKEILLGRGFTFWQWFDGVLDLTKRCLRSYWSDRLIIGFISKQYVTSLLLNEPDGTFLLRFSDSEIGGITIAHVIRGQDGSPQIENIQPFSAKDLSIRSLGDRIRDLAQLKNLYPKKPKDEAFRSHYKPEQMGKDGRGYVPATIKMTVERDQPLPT
Description: An FP assay was developed to determine IC50 values for test substances. Recombinant STAT6 protein (STAT6(W123-T658)) at 250 nM was combined with a fluorescently labeled, phosphotyrosine peptide probe (5-FAM-ApYKPFQDLI-NH2) at 2 nM in FP buffer (10 mM HEPES pH 7.4, 50 mM NaCl, 1 mM EDTA, 0.05% Tween 20, 2 mM DTT). 50 μL of STAT6-probe mixture was added to serial diluted compounds in black, 96-well plates (Greiner BioOne 655076) to a final concentration of 1% DMSO. Reaction components were mixed, and FP was measured after 45-minute incubation at room temperature using a Tecan Spark multimode plate reader. FP signal (mP) was plotted against the log concentration of the test substances and IC50 values were calculated by nonlinear regression analysis using GraphPad Prism software. For STAT6 FP assay, A=≤300 nM; B=>300-3000 nM; C=>3-30 μM; and D=>30 μM.

[3] = molecular target: pSTAT3 (Homo sapiens, UniProt P40763); assay: MSD-pSTAT-PBMC Assay (pSTAT3, IL-6 stimulated); format: cell-based
Text: Cryopreserved Peripheral Blood Mononuclear Cells (PBMC) are from AllCells. Recombinant Human IL-4 and IL-6 are from Peprotech. Mouse monoclonal anti-STAT3 antibody, rabbit monoclonal anti-pY705-STAT3 antibody, rabbit monoclonal Anti-pY641-STAT6 antibody, and lysis buffer are from Cell Signaling Technology (CST). Mouse monoclonal anti-STAT6 antibody is from BioLegend. Assay plates, blocker, and anti-rabbit secondary antibody are from Meso Scale Discovery (MSD).
Cryopreserved PBMCs were thawed out and allowed to recover overnight in IMDM+10% heat-inactivated FBS prior to plating 50,000 (STAT3) or 25,000 (STAT6) cells per well in 96-well U-bottom tissue culture plates. Cells were treated with compound for 3 hrs, then stimulated with 10 ng/mL IL-6 (STAT3) or 1 ng/mL IL-4 (STAT6) for 10 min. Cells were then spun down and washed with ice-cold PBS prior to lysing the cell pellet with 1× lysis buffer (CST) with 1× HALT protease and phosphatase inhibitor cocktail (Thermo). Lysates were transferred to and incubated overnight at 4° C. with shaking in QuickPlex 96-well high bind assay plates (MSD) pre-coated overnight with 30 μL per well of […] mouse monoclonal anti-STAT3 antibody (STAT3) or 2 μg/mL mouse monoclonal anti-STAT6 antibody (STAT6) in 1× PBS, and pre-blocked for 1 hour with 3% Blocker-A (MSD). Captured protein in the assay plates were then washed and probed with 25 μL per well of […] rabbit monoclonal anti-pY705-STAT3 antibody (STAT3) or […] rabbit monoclonal Anti-pY641-STAT6 antibody (STAT6) in 1% Blocker-A for 1 hour at room temperature with shaking, then washed and probed with 25 ul per well of 1 ug/ml Sulfo-TAG Labeled Goat Anti-Rabbit Antibody (MSD) in 1% Blocker-A for 1 hour at room temperature with shaking. Assay plates were then washed and 150 μL of 1× Read Buffer-T (MSD) was added to each well prior to reading on an SQ120 MSD Plate Reader. Assay signal from each sample was subtracted by the signal from unstimulated control wells and normalized to DMSO control wells. IC50 values were calculated using Graph Pad Prism Dose-Response Nonlinear Regression with variable slope. For both pSTAT3 and pSTAT6 A=≤100 nM; B=>100-1000 nM; C=>1000-3000 nM; and D=>3 μM.

[4] = compound 3 hrs, then 10 ng/mL IL-6 10 min, pY705-STAT3, read-out: pSTAT3 IC50
[5] = read-out: pSTAT3 IC50, compound 3 hrs, then 10 ng/mL IL-6 10 min, pY705-STAT3

Sequence of pSTAT3 (P40763 whole entry): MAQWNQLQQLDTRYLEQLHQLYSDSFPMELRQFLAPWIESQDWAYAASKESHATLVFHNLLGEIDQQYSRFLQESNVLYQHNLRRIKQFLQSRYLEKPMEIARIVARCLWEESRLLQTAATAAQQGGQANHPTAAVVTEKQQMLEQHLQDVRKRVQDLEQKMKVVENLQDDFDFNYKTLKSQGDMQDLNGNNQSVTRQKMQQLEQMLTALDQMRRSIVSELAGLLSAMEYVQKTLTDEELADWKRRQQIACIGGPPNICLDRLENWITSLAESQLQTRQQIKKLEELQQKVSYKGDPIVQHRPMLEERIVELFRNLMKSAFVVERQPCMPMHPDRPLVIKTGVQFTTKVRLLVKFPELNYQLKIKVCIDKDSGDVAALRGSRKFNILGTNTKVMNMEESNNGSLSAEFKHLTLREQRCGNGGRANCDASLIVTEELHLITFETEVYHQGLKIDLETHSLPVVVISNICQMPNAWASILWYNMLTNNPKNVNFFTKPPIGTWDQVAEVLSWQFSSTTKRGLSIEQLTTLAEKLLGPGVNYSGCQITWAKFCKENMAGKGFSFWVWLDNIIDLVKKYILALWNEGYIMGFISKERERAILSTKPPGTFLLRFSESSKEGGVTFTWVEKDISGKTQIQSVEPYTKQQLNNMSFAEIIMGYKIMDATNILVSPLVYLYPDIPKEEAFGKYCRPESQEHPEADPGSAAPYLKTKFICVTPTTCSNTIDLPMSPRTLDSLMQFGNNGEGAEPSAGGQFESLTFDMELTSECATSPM
T1 sequence (P40763 127-722): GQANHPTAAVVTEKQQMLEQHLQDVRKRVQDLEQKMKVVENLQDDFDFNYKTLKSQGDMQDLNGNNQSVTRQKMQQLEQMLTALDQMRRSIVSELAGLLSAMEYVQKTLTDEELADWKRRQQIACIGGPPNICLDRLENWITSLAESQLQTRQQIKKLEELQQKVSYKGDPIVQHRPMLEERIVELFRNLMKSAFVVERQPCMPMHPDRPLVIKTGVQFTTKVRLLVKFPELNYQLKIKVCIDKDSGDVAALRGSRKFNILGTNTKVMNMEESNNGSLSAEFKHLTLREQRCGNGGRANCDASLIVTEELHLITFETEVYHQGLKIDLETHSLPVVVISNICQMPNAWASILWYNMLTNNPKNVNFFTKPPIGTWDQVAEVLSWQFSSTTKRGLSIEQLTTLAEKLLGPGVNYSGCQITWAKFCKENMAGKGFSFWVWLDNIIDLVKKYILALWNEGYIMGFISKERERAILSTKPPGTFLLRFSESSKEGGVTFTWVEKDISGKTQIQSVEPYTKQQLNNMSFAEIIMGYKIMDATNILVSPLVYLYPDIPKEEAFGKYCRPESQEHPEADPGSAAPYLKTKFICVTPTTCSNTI

Row | IC50 [1] [µM] | IC50 [2] [µM] | IC50 [3, 4] [µM] | Structure (SMILES) | IC50 [3, 5] [µM]
1 | < 0.1 | 0.3 to 3 | 1 to 3 | Cc1ncsc1-c1ccc(CNC(=O)[C@@H]2C[C@@H](O)CN2C(=O)[C@@H](NC(=O)C2CCN(c3ccncc3C3CN(C(=O)[C@@H]4CC[C@@H]5CCC[C@H](NC(=O)c6cc7cc(C(F)(F)P(=O)(O)O)ccc7s6)C(=O)N54)C3)CC2)C(C)(C)C)cc1 [Compound 8, (difluoro(2-(((3S,6S,9aS)-3-(3-(4-(4-(((S)-1-((2S,4R)-4-hydroxy-2-((4-(4-methylthiazol-5-yl)benzyl)carbamoyl)pyrrolidin-1-yl)-3,3-dimethyl-1-oxobutan-2-yl)carbamoyl)piperidin-1-yl)pyridin-3-yl)azetidine-1-carbonyl)-5-oxooctahydro-1H-pyrrolo[1,2-a]azepin-6-yl)carbamoyl)benzo[b]thiophen-5-yl)methyl)phosphonic acid] | 
2 | < 0.1 | 3 to 30 | > 3 | O=C1CCC(c2ccc(OCCOc3ccncc3C3CN(C(=O)[C@@H]4CC[C@@H]5CCC[C@H](NC(=O)c6cc7cc(C(F)(F)P(=O)(O)O)ccc7s6)C(=O)N54)C3)cc2)C(=O)N1 (stereo partly drawn) [Compound 9, ((2-(((3S,6S,9aS)-3-(3-(4-(2-(4-(2,6-dioxopiperidin-3-yl)phenoxy)ethoxy)pyridin-3-yl)azetidine-1-carbonyl)-5-oxooctahydro-1H-pyrrolo[1,2-a]azepin-6-yl)carbamoyl)benzo[b]thiophen-5-yl)difluoromethyl)phosphonic acid] | 
3 | < 0.1 | 3 to 30 | > 3 | O=C1CCC(c2ccc(OCCOCCOc3ccncc3C3CN(C(=O)[C@@H]4CC[C@@H]5CCC[C@H](NC(=O)c6cc7cc(C(F)(F)P(=O)(O)O)ccc7s6)C(=O)N54)C3)cc2)C(=O)N1 (stereo partly drawn) [Compound 11, ((2-(((3S,6S,9aS)-3-(3-(4-(2-(2-(4-(2,6-dioxopiperidin-3-yl)phenoxy)ethoxy)ethoxy)pyridin-3-yl)azetidine-1-carbonyl)-5-oxooctahydro-1H-pyrrolo[1,2-a]azepin-6-yl)carbamoyl)benzo[b]thiophen-5-yl)difluoromethyl)phosphonic acid] | 
4 | < 0.1 | 3 to 30 | > 3 | CN(CCOc1ccc(C2CCC(=O)NC2=O)cc1)c1ccncc1C1CN(C(=O)[C@@H]2CC[C@@H]3CCC[C@H](NC(=O)c4cc5cc(C(F)(F)P(=O)(O)O)ccc5s4)C(=O)N32)C1 (stereo partly drawn) [Compound 21, ((2-(((3S,6S,9aS)-3-(3-(4-((2-(4-(2,6-dioxopiperidin-3-yl)phenoxy)ethyl)(methyl)amino)pyridin-3-yl)azetidine-1-carbonyl)-5-oxooctahydro-1H-pyrrolo[1,2-a]azepin-6-yl)carbamoyl)benzo[b]thiophen-5-yl)difluoromethyl)phosphonic acid] | 
5 | < 0.1 | 3 to 30 | > 3 | O=C1CCC(c2ccc(OCC(=O)N3CCN(c4ccncc4C4CN(C(=O)[C@@H]5CC[C@@H]6CCC[C@H](NC(=O)c7cc8cc(C(F)(F)P(=O)(O)O)ccc8s7)C(=O)N65)C4)CC3)cc2)C(=O)N1 (stereo partly drawn) [Compound 28, ((2-(((3S,6S,9aS)-3-(3-(4-(4-(2-(4-(2,6-dioxopiperidin-3-yl)phenoxy)acetyl)piperazin-1-yl)pyridin-3-yl)azetidine-1-carbonyl)-5-oxooctahydro-1H-pyrrolo[1,2-a]azepin-6-yl)carbamoyl)benzo[b]thiophen-5-yl)difluoromethyl)phosphonic acid] | 

Row | Structure (SMILES) | IC50 [1] [µM] | IC50 [2] [µM] | IC50 [3, 4] [µM] | IC50 [3, 5] [µM]
6 | Cc1ncsc1-c1ccc(CNC(=O)[C@@H]2C[C@@H](O)CN2C(=O)[C@@H](NCCCCOc2ccncc2C2CN(C(=O)[C@@H]3CC[C@@H]4CCC[C@H](NC(=O)c5cc6cc(C(F)(F)P(=O)(O)O)ccc6s5)C(=O)N43)C2)C(C)(C)C)cc1 [Compound 2, (difluoro(2-(((3S,6S,9aS)-3-(3-(4-(4-(((S)-1-((2S,4R)-4-hydroxy-2-((4-(4-methylthiazol-5-yl)benzyl)carbamoyl)pyrrolidin-1-yl)-3,3-dimethyl-1-oxobutan-2-yl)amino)butoxy)pyridin-3-yl)azetidine-1-carbonyl)-5-oxooctahydro-1H-pyrrolo[1,2-a]azepin-6-yl)carbamoyl)benzo[b]thiophen-5-yl)methyl)phosphonic acid] | < 0.1 | 3 to 30 | > 3 | 
7 | O=C(COc1cccc2c1C(=O)N(C1CCC(=O)NC1=O)C2=O)NCCOCCOCCC(=O)NC1(c2ccccn2)CN(C(=O)[C@@H]2CC[C@H]3CCCC[C@H](NC(=O)c4cc5cc(C(F)(F)P(=O)(O)O)ccc5s4)C(=O)N32)C1 (stereo partly drawn) [Compound 30, ((2-(((3S,6S,10aR)-3-(3-(3-(2-(2-(2-((2-(2,6-dioxopiperidin-3-yl)-1,3-dioxoisoindolin-4-yl)oxy)acetamido)ethoxy)ethoxy)propanamido)-3-(pyridin-2-yl)azetidine-1-carbonyl)-5-oxodecahydropyrrolo[1,2-a]azocin-6-yl)carbamoyl)benzo[b]thiophen-5-yl)difluoromethyl)phosphonic acid] | < 0.1 | 3 to 30 |  | > 3
8 | Cc1ncsc1-c1ccc([C@H](C)NC(=O)[C@@H]2C[C@@H](O)CN2C(=O)[C@@H](NC(=O)COCCOCC(=O)NC2(c3ccccn3)CN(C(=O)[C@@H]3CC[C@H]4CCCC[C@H](NC(=O)c5cc6cc(C(F)(F)P(=O)(O)O)ccc6s5)C(=O)N43)C2)C(C)(C)C)cc1 [Compound 31, (difluoro(2-(((3S,6S,10aR)-3-(3-(2-(2-(2-(((S)-1-((2S,4R)-4-hydroxy-2-(((S)-1-(4-(4-methylthiazol-5-yl)phenyl)ethyl)carbamoyl)pyrrolidin-1-yl)-3,3-dimethyl-1-oxobutan-2-yl)amino)-2-oxoethoxy)ethoxy)acetamido)-3-(pyridin-2-yl)azetidine-1-carbonyl)-5-oxodecahydropyrrolo[1,2-a]azocin-6-yl)carbamoyl)benzo[b]thiophen-5-yl)methyl)phosphonic acid] | < 0.1 | 3 to 30 |  | > 3
